Data published in patent US20250295577A1, “EXTRACT OF YOUNG FLOWERS AND COSMETIC USES” (SOCIETE INDUSTRIELLE LIMOUSINE D'APPLICATION BIOLOGIQUE, priority 2021, published 2025).

System: human fibroblasts derived from older donors
Experiment: Cell migration of human fibroblasts (wound, crystal violet, occupied surface)
Type: cell-based
Conditions: for Cell migration: vs older control (Table 5)
Experimental: Cell migration is the ability of certain cells to move. In vitro, it is evaluated by the number of cells covering a surface that is initially empty (Kim et al., 2015; Lampugnani, 1999). The migratory capacity of the cells is reduced with age (Boulter et al., 2013).
Their action was studied on a human fibroblast culture derived from older donors.
On D0, the human fibroblasts are seeded and incubated at 37° C.
After several days of culture, the insert is removed from the culture chamber, creating a wound. The cells are treated with an active ingredient according to the invention or the red flower extract or a solution of N-(1-deoxy-1-fructosyl)-proline then incubated at 37° C.
After several days of culture, the cells are stained with a crystal violet solution at 0.5% (M/V). The viewing is done with an AxioCam MRc camera with microscope coupled to an image analysis system.
The surface ratio occupied by the cells is calculated automatically using software.

With O=C(CN1CCCC1C(=O)O)C(O)C(O)C(O)CO (stereo not shown) [N-(1-deoxy-1-fructosyl)-proline] the Occupied surface ratio (1.5 ppm (Table 5)) was 0.266 UA, the Cell migration (1.5 ppm) was 0% and the Occupied surface ratio (5 ppm (Table 5)) was 0.328 UA. The Cell migration (5 ppm) was “+19%”.
